From patent US20250276120A1, “METHOD FOR PREVENTING COAGULATION IN PATIENTS WITH IMPLANTED CARDIAC DEVICES” (Cadrenal Therapeutics, Inc., priority 2024, published 2025)
Like-named read-outs stand apart in the source and are kept apart here.

How the values were obtained:
[1] = human, in vivo
cytochrome P450 system = conditions: cited from earlier work
[2] = pharmacokinetic study with fluconazole (CYP2C9 inhibitor) co-administration in healthy volunteers; conditions: fluconazole co-administered
[3] = time-within-therapeutic range (TTR), supporting clinical data; assay type: in vivo, human; conditions: stable anticoagulation with tecarfarin
Source text: Tecarfarin is not metabolized via the cytochrome P450 system, but rather via an alternate pathway and enzyme (h-CE2) that is abundant throughout the body and essentially insaturable. Tecarfarin has a reliable and stable PK profile and PD response (anticoagulation), a well-understood mechanism of action (similar to other VKAs), with supporting clinical data.

[4] = target: T1, human carboxylesterase 2 (hCE-2) (Homo sapiens, UniProt O00748); conditions: cited from earlier work
T1 sequence (O00748 27-559): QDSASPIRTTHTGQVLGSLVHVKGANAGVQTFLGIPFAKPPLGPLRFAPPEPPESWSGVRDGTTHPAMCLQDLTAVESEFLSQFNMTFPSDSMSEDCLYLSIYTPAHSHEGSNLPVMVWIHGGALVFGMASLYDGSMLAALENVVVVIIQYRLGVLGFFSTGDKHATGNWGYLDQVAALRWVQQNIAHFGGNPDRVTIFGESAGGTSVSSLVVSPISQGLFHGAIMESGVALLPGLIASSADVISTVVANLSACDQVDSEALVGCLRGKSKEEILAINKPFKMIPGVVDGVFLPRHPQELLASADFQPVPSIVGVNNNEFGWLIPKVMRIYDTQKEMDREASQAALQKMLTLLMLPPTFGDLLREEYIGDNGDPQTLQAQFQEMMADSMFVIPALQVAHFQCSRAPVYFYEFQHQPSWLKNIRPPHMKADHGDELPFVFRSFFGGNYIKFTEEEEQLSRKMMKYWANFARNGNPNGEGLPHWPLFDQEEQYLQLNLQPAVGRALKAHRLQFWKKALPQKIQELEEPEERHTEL

[5] = Phase 2/3 randomized, double-blind, active-control study tecarfarin versus warfarin, TTR as primary efficacy endpoint; assay type: in vivo, human
[6] = aspirin added to warfarin, patients with atrial fibrillation already on warfarin; cited from earlier work

Question: With `CC(=O)CC(c1ccccc1)c1c(O)c2ccccc2oc1=O` (racemic) [warfarin] as the compound, how does the “effect of CKD on the effect of CYP2C9 genetic variation on exposure” value [1] read?
Answer: significantly increased

Question: And the “mean plasma concentrations in subjects with CKD versus healthy subjects” value [1]?
Answer: significantly higher

Question: What about the “metabolism by the cytochrome P450 system” value (cytochrome P450 system) of the same compound?
Answer: metabolized by multiple different isoenzymes of the cytochrome P450 system (primarily CYP2C9, CYP1A2 and CYP3A4)

Question: With `CC(=O)C[C@@H](c1ccccc1)c1c(O)c2ccccc2oc1=O` [(S)-warfarin, reference compound] as the compound, how does the “mean plasma concentrations in subjects with CKD versus healthy subjects” value (CKD versus healthy subjects) read?
Answer: significantly higher

Question: What about the “effect of CKD on the effect of CYP2C9 genetic variation on exposure” value (CKD, CYP2C9 genotype) of the same compound?
Answer: significantly increased

Question: And the “effect of fluconazole co-administration on drug exposure” value [2]?
Answer: significantly prolonged

Question: With `CC(=O)C[C@H](c1ccccc1)c1c(O)c2ccccc2oc1=O` [R-warfarin] as the compound, how does the “effect of fluconazole co-administration on drug exposure” value [2] read?
Answer: significantly prolonged

Question: Which results are given for `CC(OC(=O)c1ccc(Cc2c(O)c3ccccc3oc2=O)cc1)(C(F)(F)F)C(F)(F)F` [Tecarfarin, 1,1,1,3,3,3-hexafluoro-2-methyl-2-propanyl 4-[(4-hydroxy-2-oxo-2H-chromen-3-yl)methyl] benzoate]?
Answer: change of elimination half-life (t1/2) in CKD (CKD versus healthy subjects): decreased; mean plasma concentrations in subjects with CKD versus healthy subjects (CKD versus healthy subjects): not significantly higher; time-within-therapeutic range (TTR) [3]: > 72%; effect of fluconazole co-administration on PK [2]: unaffected; metabolic pathway (carboxylesterase) [4]: hydrolysis via by human carboxylesterase 2 (hCE-2); TTR on tecarfarin compared to warfarin ([5]; CYP2C9 genotypic variants on CYP2C9 inhibitors, small number of subjects): higher; percent of time-within-therapeutic-range (TTR), tecarfarin versus warfarin ([5]; general population requiring chronic oral anticoagulation, blinded treatment): did not differ significantly; TTR, tecarfarin versus warfarin ([5]; subjects with CYP2C9 wild type genotype): significant improvement; metabolism by the cytochrome P450 system (cytochrome P450 system): does not proceed via the cytochrome P450 system

Question: For `CC(=O)Oc1ccccc1C(=O)O` [aspirin], which “incremental rate of major bleeding” value [6] is on record?
Answer: 1.6 % per year
